The term EC50 denotes the concentration giving half of the maximal effect. A high value points to a less potent agent.

The target in the experiment is T1, human GPBAR1 receptor (Homo sapiens, UniProt Q8TDU6).
T1 construct: expressed in transfected cells
T1 sequence (Q8TDU6 1-330): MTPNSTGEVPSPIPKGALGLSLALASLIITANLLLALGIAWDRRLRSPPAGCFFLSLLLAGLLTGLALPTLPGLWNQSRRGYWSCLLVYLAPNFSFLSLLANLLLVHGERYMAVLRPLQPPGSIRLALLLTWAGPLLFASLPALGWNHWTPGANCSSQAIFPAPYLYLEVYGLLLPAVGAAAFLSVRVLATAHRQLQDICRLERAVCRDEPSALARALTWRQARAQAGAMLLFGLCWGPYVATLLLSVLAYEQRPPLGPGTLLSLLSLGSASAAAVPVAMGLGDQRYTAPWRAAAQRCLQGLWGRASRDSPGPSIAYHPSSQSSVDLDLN
As to the kind of experiment: functional cAMP assay in CHO-dhfr(minus) cells expressing human GPBAR1 receptors. In kind it is cell-based. Particulars: cAMP increase (TR-FRET) in CHO-dhfr(minus) cells expressing human GPBAR1; compounds incubated 30 min at 30° C. How it is done:
The final clone was verified by DNA sequence analysis. The plasmid was transfected into CHO cells deficient in dihydrofolate reductase activity (CHO-dhfr-) using Lipofectamine plus (Invitrogen). Clones were isolated in limited dilution conditions and identified by activities in the cAMP assay using lithocholic acid as agonist.
The growth medium was exchanged with Krebs Ringer Bicarbonate buffer with 1 mM IBMX and incubated at 30° C. for 30 mM. Compounds were added to a final assay volume of 100 μl and incubated for 30 min at 30° C. […] The time-resolved energy transfer is measured by a TRF reader (Evotec Technologies GmbH, Hamburg Germany), equipped with a ND:YAG laser as excitation source. The plate is measured twice with the excitation at 355 nm and at the emission with a delay of 100 ns and a gate of 100 ns, total exposure time 10s at 730 (bandwith 30 nm) or 645 nm (bandwith 75 nm), respectively.
EC50 values were determined using Activity Base analysis (ID Business Solution, Limited). […] Specificity for GPBAR1 was tested in non-transfected CHO cells in the same assay as above.
A general note: cAMP levels reflect the balance of adenylyl cyclase and phosphodiesterase activity.

For `O=C(c1cccnc1Oc1cccc(C(F)(F)F)c1)N1CCCc2ccccc21` [Example 1, (3,4-Dihydro-2H-quinolin-1-yl)-[2-(3-trifluoromethyl-phenoxy)-pyridin-3-yl]-methanone], the 50% effective concentration (EC50) came out at 396 nM. Regarding `O=C(c1cccnc1Oc1ccccc1Cl)N1CCCc2ccccc21` [Example 2, [2-(2-Chloro-phenoxy)-pyridin-3-yl]-(3,4-dihydro-2H-quinolin-1-yl)-methanone], it took 989 nM to reach a half-maximal effect (EC50). For `O=C(c1cccnc1Oc1cccc(Cl)c1)N1CCCc2ccccc21` [Example 3, [2-(3-Chloro-phenoxy)-pyridin-3-yl]-(3,4-dihydro-2H-quinolin-1-yl)-methanone], the EC50 came to 192 nM.

Regarding `Cc1ccc2c(c1)CCCN2C(=O)c1cccnc1Oc1cccc(C(F)(F)F)c1` [Example 4, (6-Methyl-3,4-dihydro-2H-quinolin-1-yl)-[2-(3-trifluoromethyl-phenoxy)-pyridin-3-yl]-methanone], the EC50 is 1400 nM. As to `Cc1ccc2c(c1)CCCN2C(=O)c1cccnc1Oc1cccc(Cl)c1` [Example 5, [2-(3-Chloro-phenoxy)-pyridin-3-yl]-(6-methyl-3,4-dihydro-2H-quinolin-1-yl)-methanone], the EC50 came to 649 nM. In the case of `O=C(c1cccnc1Oc1ccc(Cl)c(Cl)c1)N1CCCc2ccccc21` [Example 6, [2-(3,4-Dichloro-phenoxy)-pyridin-3-yl]-(3,4-dihydro-2H-quinolin-1-yl)-methanone] it was 996 nM; in that of `N#Cc1cccc(Oc2ncccc2C(=O)N2CCCc3ccccc32)c1` [Example 7, 3-[3-(3,4-Dihydro-2H-quinoline-1-carbonyl)-pyridin-2-yloxy]-benzonitrile], 575 nM; in that of `Cc1cccc(Oc2ncccc2C(=O)N2CCCc3ccccc32)c1` [Example 8, (3,4-Dihydro-2H-quinolin-1-yl)-(2-m-tolyloxy-pyridin-3-yl)-methanone], 644 nM. In turn, `Cc1ccc(Oc2ncccc2C(=O)N2CCCc3ccccc32)cc1Cl` [Example 9, [2-(3-Chloro-4-methyl-phenoxy)-pyridin-3-yl]-(3,4-dihydro-2H-quinolin-1-yl)-methanone] yielded an EC50 of 1010 nM. In the case of `O=C(c1cccnc1Oc1ccc(F)c(Cl)c1)N1CCCc2ccccc21` [Example 10, [2-(3-Chloro-4-fluoro-phenoxy)-pyridin-3-yl]-(3,4-dihydro-2H-quinolin-1-yl)-methanone] it was 53 nM; in that of `Cc1ccc(Cl)cc1Oc1ncccc1C(=O)N1CCCc2ccccc21` [Example 11, [2-(5-Chloro-2-methyl-phenoxy)-pyridin-3-yl]-(3,4-dihydro-2H-quinolin-1-yl)-methanone], 153 nM; in that of `O=C(c1cccnc1Oc1cccc(Cl)c1Cl)N1CCCc2ccccc21` [Example 12, [2-(2,3-Dichloro-phenoxy)-pyridin-3-yl]-(3,4-dihydro-2H-quinolin-1-yl)-methanone], 1150 nM.

In turn, `O=C(c1cccnc1Oc1cc(F)cc(Cl)c1)N1CCCc2ccccc21` [Example 13, [2-(3-Chloro-5-fluoro-phenoxy)-pyridin-3-yl]-(3,4-dihydro-2H-quinolin-1-yl)-methanone] gave an EC50 of 149 nM. In the case of `O=C(c1cccnc1Oc1cc(Cl)c(Cl)cc1Cl)N1CCCc2ccccc21` [Example 14, (3,4-Dihydro-2H-quinolin-1-yl)-[2-(2,4,5-trichloro-phenoxy)-pyridin-3-yl]-methanone] it was 236 nM; in that of `O=C(c1ccccc1)c1cccc(Oc2ncccc2C(=O)N2CCCc3ccccc32)c1` [Example 15, [2-(3-Benzoyl-phenoxy)-pyridin-3-yl]-(3,4-dihydro-2H-quinolin-1-yl)-methanone], 1690 nM. In the case of `O=C(c1cccnc1Oc1cccc(OC(F)(F)F)c1)N1CCCc2ccccc21` [Example 16, (3,4-Dihydro-2H-quinolin-1-yl)-[2-(3-trifluoromethoxy-phenoxy)-pyridin-3-yl]-methanone] it was 1920 nM. To `O=C(c1cccnc1Oc1cc(Cl)cc(Cl)c1)N1CCCc2ccccc21` [Example 17, [2-(3,5-Dichloro-phenoxy)-pyridin-3-yl]-(3,4-dihydro-2H-quinolin-1-yl)-methanone] belongs 176 nM. As for `O=C(c1cccnc1Oc1cccc(F)c1)N1CCCc2ccccc21` [Example 18, (3,4-Dihydro-2H-quinolin-1-yl)-[2-(3-fluoro-phenoxy)-pyridin-3-yl]-methanone], the midpoint of the response, the EC50, lay at 322 nM. To `CC(C)c1cccc(Oc2ncccc2C(=O)N2CCCc3ccccc32)c1` [Example 19, (3,4-Dihydro-2H-quinolin-1-yl)-[2-(3-isopropyl-phenoxy)-pyridin-3-yl]-methanone] belongs 625 nM. As for `CCc1cccc(Oc2ncccc2C(=O)N2CCCc3ccccc32)c1` [Example 20, (3,4-Dihydro-2H-quinolin-1-yl)-[2-(3-ethyl-phenoxy)-pyridin-3-yl]-methanone], the EC50 worked out at 473 nM. In the case of `O=C(c1cccnc1Oc1cccc(I)c1)N1CCCc2ccccc21` [Example 21, (3,4-Dihydro-2H-quinolin-1-yl)-[2-(3-iodo-phenoxy)-pyridin-3-yl]-methanone] it was 345 nM. Compound `O=C(c1cccnc1Oc1cc(C(F)(F)F)cc(Cl)c1F)N1CCCc2ccccc21` [Example 22, [2-(3-Chloro-2-fluoro-5-trifluoromethyl-phenoxy)-pyridin-3-yl]-(3,4-dihydro-2H-quinolin-1-yl)-methanone] displayed an EC50 of 651 nM.

Regarding `O=C(c1cccnc1Oc1cccc(Br)c1)N1CCCc2ccccc21` [Example 23, [2-(3-Bromo-phenoxy)-pyridin-3-yl]-(3,4-dihydro-2H-quinolin-1-yl)-methanone], the EC50 was found to be 232 nM.

The compound `O=C(c1cc(F)cnc1Oc1cccc(Cl)c1)N1CCCc2ccccc21` [Example 25, [2-(3-Chloro-phenoxy)-5-fluoro-pyridin-3-yl]-(3,4-dihydro-2H-quinolin-1-yl)-methanone] had a 50% effective concentration (EC50) of 128 nM. To `O=C(c1cc(F)cnc1Oc1cc(F)ccc1F)N1CCCc2ccccc21` [Example 26, [2-(2,5-Difluoro-phenoxy)-5-fluoro-pyridin-3-yl]-(3,4-dihydro-2H-quinolin-1-yl)-methanone] belongs 106 nM. To `O=C(c1cc(Cl)cnc1Oc1cc(Cl)ccc1Cl)N1CCCc2ccccc21` [Example 27, [5-Chloro-2-(2,5-dichloro-phenoxy)-pyridin-3-yl]-(3,4-dihydro-2H-quinolin-1-yl)-methanone] belongs 145 nM. As to `O=C(c1cc(Cl)cnc1Oc1cc(F)ccc1F)N1CCCc2ccccc21` [Example 28, [5-Chloro-2-(2,5-difluoro-phenoxy)-pyridin-3-yl]-(3,4-dihydro-2H-quinolin-1-yl)-methanone], the response was half-maximal at 1980 nM (EC50). With `O=C(c1ccc(C(F)(F)F)nc1Oc1cc(Cl)ccc1Cl)N1CCCc2ccccc21` [Example 29, [2-(2,5-Dichloro-phenoxy)-6-trifluoromethyl-pyridin-3-yl]-(3,4-dihydro-2H-quinolin-1-yl)-methanone], the concentration giving a half-maximal response (EC50) worked out at 144 nM. To `O=C(c1cccnc1Oc1cccc(Cl)c1)N1CCOc2ccccc21` [Example 30, [2-(3-Chloro-phenoxy)-pyridin-3-yl]-(2,3-dihydro-benzo[1,4]oxazin-4-yl)-methanone] belongs 436 nM.

`Cc1ccc2c(c1)CCCN2C(=O)c1cccnc1Oc1cc(Cl)ccc1Cl` [Example 31, [2-(2,5-Dichloro-phenoxy)-pyridin-3-yl]-(6-methyl-3,4-dihydro-2H-quinolin-1-yl)-methanone] showed an EC50 of 138 nM. `CCN(C(=O)c1cccnc1Oc1cc(Cl)ccc1Cl)c1ccccc1` [Example 32, 2-(2,5-Dichloro-phenoxy)-N-ethyl-N-phenyl-nicotinamide] displayed an EC50 of 70 nM. In the case of `O=C(c1cccnc1Oc1cc(Cl)ccc1Cl)N1CCCc2ccc(Cl)cc21` [Example 33, (7-Chloro-3,4-dihydro-2H-quinolin-1-yl)-[2-(2,5-dichloro-phenoxy)-pyridin-3-yl]-methanone] it was 203 nM; in that of `O=C(c1cccnc1Oc1cc(Cl)ccc1Cl)N1CCCc2ccc(F)cc21` [Example 34, [2-(2,5-Dichloro-phenoxy)-pyridin-3-yl]-(7-fluoro-3,4-dihydro-2H-quinolin-1-yl)-methanone], 58 nM; in that of `CN(C(=O)c1cccnc1Oc1cc(Cl)ccc1Cl)c1ccccc1` [Example 35, 2-(2,5-Dichloro-phenoxy)-N-methyl-N-phenyl-nicotinamide], 283 nM. To `O=C(c1cccnc1Oc1cc(Cl)ccc1Cl)N1CCOc2ccccc21` [Example 36, [2-(2,5-Dichloro-phenoxy)-pyridin-3-yl]-(2,3-dihydro-benzo[1,4]oxazin-4-yl)-methanone] belongs 135 nM; to `O=C(c1cccnc1Oc1cc(Cl)ccc1Cl)N1CCCc2cc(F)ccc21` [Example 37, [2-(2,5-Dichloro-phenoxy)-pyridin-3-yl]-(6-fluoro-3,4-dihydro-2H-quinolin-1-yl)-methanone], 28 nM.

For the origin of these results see US8309734B2 (Hoffmann-La Roche Inc., priority 2008, dated 2012).
